Starred links: 1 amine or outer side, 2 acyl side, 3 side chain; linkers in the order of their positions; H or OH if unused. Non-standard residues stand in square brackets, D forms with d. Residues, ends and D or L forms follow the SMILES beside them. *: point of attachment. DOTA = O=C(O)CN1CCN(CC(=O)O)CCN(CC(=O)*)CCN(CC(=O)O)CC1; αMeW = C[C@](N)(Cc1c[nH]c2ccccc12)C(=O)O; Sta = CC(C)C[C@H](N)[C@@H](O)CC(=O)O; Bta = N[C@@H](Cc1csc2ccccc12)C(=O)O; Gly(cPent) = N[C@H](C(=O)O)C1CCCC1; Trx = NC[C@H]1CC[C@H](C(=O)O)CC1; X1 = O=C(CN1CCC(N[*:1])CC1)[*:2]; Chg = N[C@H](C(=O)O)C1CCCCC1; dOrn = NCCC[C@@H](N)C(=O)O; hSer = N[C@@H](CCO)C(=O)O; Nle = CCCC[C@H](N)C(=O)O; dDap = NC[C@@H](N)C(=O)O; βAla = NCCC(=O)O; Sar = CNCC(=O)O

This data set is described as follows: Plasma studies: metabolic stability in vitro in human plasma (radio RP-HPLC). Type of data set: in vitro ADME. As to the method: Metabolic stability in vitro was determined applying a procedure published by Linder et al. that was slightly modified. Immediately after labeling, human (200 μL) or murine (100 μL) plasma was added and the mixture was incubated at 37° C. for 72±2 h (or 6±0.5 h). Proteins were precipitated by treatment with ice-cold EtOH (150 μL [human], 100 μL [murine]) and ice-cold MeCN (450 μL [human], 300 μL [murine]), followed by centrifugation for 20 min at 13000 rpm. The supernatants were decanted and further analyzed using radio RP-HPLC. […]
On to `CC(C)C[C@H](NC(=O)C[C@H](O)[C@H](CC(C)C)NC(=O)[C@H](Cc1c[nH]cn1)NC(=O)CNC(=O)[C@@H](NC(=O)[C@H](C)NC(=O)[C@](C)(Cc1c[nH]c2ccccc12)NC(=O)[C@H](CCC(N)=O)NC(=O)[C@@H](CCCNC(=N)N)NC(=O)CN1CCC(NC(=O)CN2CCN(CC(=O)O)CCN(CC(=O)O)CCN(CC(=O)O)CC2)CC1)C(C)C)C(N)=O` [DOTA-[arg^6, α-Me-Trp^8]MJ9] ({DOTA}-[X1][dR]Q[αMeW]AVGH[Sta]L-NH2), for which the “Amount of intact tracer after incubation in human plasma for 72 ± 2 h (n = 2)” value (shortened to “Amount of intact tracer after incubation”) is reported as 20.1 ± 0.7.

For `CC(C)C[C@H](NC(=O)C[C@H](O)[C@H](CC(C)C)NC(=O)[C@H](Cc1c[nH]cn1)NC(=O)CN(C)C(=O)[C@@H](NC(=O)[C@H](C)NC(=O)[C@H](Cc1c[nH]c2ccccc12)NC(=O)[C@H](CCC(N)=O)NC(=O)[C@@H](Cc1ccccc1)NC(=O)CN1CCC(NC(=O)CN2CCN(CC(=O)O)CCN(CC(=O)O)CCN(CC(=O)O)CC2)CC1)C(C)C)C(N)=O` [DOTA-[N—Me-Gly^11]MJ9], the “Amount of intact tracer after incubation” value is 6.3 ± 0.6.

Consider `CC(C)C[C@H](NC(=O)C[C@H](O)[C@H](CC(C)C)NC(=O)[C@H](Cc1c[nH]cn1)NC(=O)CNC(=O)[C@@H](NC(=O)[C@H](C)NC(=O)[C@H](Cc1c[nH]c2ccccc12)NC(=O)[C@H](CCO)NC(=O)[C@@H](Cc1ccccc1)NC(=O)[C@H]1CC[C@H](CNC(=O)CN2CCN(CC(=O)O)CCN(CC(=O)O)CCN(CC(=O)O)CC2)CC1)C(C)C)C(N)=O` [DOTA-[Txa^5, Hse^7]MJ9] ({DOTA-Trx}-[dF][hSer]WAVGH[Sta]L-NH2), for which the “Amount of intact tracer after incubation” value amounted to 26.7 ± 1.3.

`CC(C)C[C@H](NC(=O)C[C@H](O)[C@H](CC(C)C)NC(=O)[C@H](Cc1c[nH]cn1)NC(=O)CNC(=O)[C@@H](NC(=O)[C@H](C)NC(=O)[C@H](Cc1c[nH]c2ccccc12)NC(=O)[C@H](CCC(N)=O)NC(=O)[C@@H](Cc1ccccc1)NC(=O)CN1CCC(NC(=O)CN2CCN(CC(=O)O)CCN(CC(=O)O)CCN(CC(=O)O)CC2)CC1)C1CCCC1)C(N)=O` [DOTA-[Cpg^10]MJ9] ({DOTA}-[X1][dF]QWA[Gly(cPent)]GH[Sta]L-NH2): the “Amount of intact tracer after incubation” value amounted to 25.3 ± 1.4.

Take `CC(C)C[C@H](NC(=O)C[C@H](O)[C@H](CC(C)C)NC(=O)[C@H](Cc1c[nH]cn1)NC(=O)CNC(=O)[C@@H](NC(=O)[C@H](CO)NC(=O)[C@H](Cc1csc2ccccc12)NC(=O)[C@H](CCC(N)=O)NC(=O)[C@@H](Cc1ccccc1)NC(=O)CN1CCC(NC(=O)CN2CCN(CC(=O)O)CCN(CC(=O)O)CCN(CC(=O)O)CC2)CC1)C(C)C)C(N)=O` [DOTA-[Bta^8, Ser^9]MJ9] ({DOTA}-[X1][dF]Q[Bta]SVGH[Sta]L-NH2): the “Amount of intact tracer after incubation” value worked out at 1.5 ± 0.2.

For the compound `CCCC[C@H](NC(=O)[C@H](Cc1ccccc1)NC(=O)[C@H](Cc1c[nH]cn1)NC(=O)CCNC(=O)[C@@H](NC(=O)[C@H](C)NC(=O)[C@](C)(Cc1c[nH]c2ccccc12)NC(=O)[C@H](CCC(N)=O)NC(=O)[C@@H](Cc1ccccc1)NC(=O)CN1CCN(CC(=O)O)CCN(CC(=O)O)CCN(CC(=O)O)CC1)C(C)C)C(N)=O` [DOTA-[α-Me-Trp^8]UL] ({DOTA}-[dF]Q[αMeW]AV[βAla]HF[Nle]-NH2), the “Amount of intact tracer after incubation” value is reported as 10.2 ± 2.7.

In the case of `CC(C)C[C@H](NC(=O)C[C@H](O)[C@H](CC(C)C)NC(=O)[C@H](Cc1c[nH]cn1)NC(=O)CNC(=O)[C@@H](NC(=O)[C@H](C)NC(=O)[C@](C)(Cc1c[nH]c2ccccc12)NC(=O)[C@H](CCC(N)=O)NC(=O)[C@@H](Cc1ccccc1)NC(=O)[C@H]1CC[C@H](CNC(=O)CN2CCN(CC(=O)O)CCN(CC(=O)O)CCN(CC(=O)O)CC2)CC1)C(C)C)C(N)=O` [DOTA-[Txa^5, α-Me-Trp^8]MJ9], the “Amount of intact tracer after incubation” value amounted to 30.6 ± 0.8.

`CC(C)C[C@H](NC(=O)C[C@H](O)[C@H](CC(C)C)NC(=O)[C@H](Cc1c[nH]cn1)NC(=O)CNC(=O)[C@@H](NC(=O)[C@H](C)NC(=O)[C@](C)(Cc1c[nH]c2ccccc12)NC(=O)[C@H](CCC(N)=O)NC(=O)[C@@H](Cc1ccccc1)NC(=O)CN1CCC(NC(=O)CN2CCN(CC(=O)O)CCN(CC(=O)O)CCN(CC(=O)O)CC2)CC1)C1CCCC1)C(N)=O` [DOTA-[α-Me-Trp^8, Cpg^10]MJ9] ({DOTA}-[X1][dF]Q[αMeW]A[Gly(cPent)]GH[Sta]L-NH2): the “Amount of intact tracer after incubation” value is recorded as 25.5 ± 1.9.

For the compound `CC(C)C[C@H](NC(=O)C[C@H](O)[C@H](CC(C)C)NC(=O)[C@H](Cc1c[nH]cn1)NC(=O)CNC(=O)[C@@H](NC(=O)[C@H](C)NC(=O)[C@H](Cc1c[nH]c2ccccc12)NC(=O)[C@H](CCC(N)=O)NC(=O)[C@@H](CCCNC(=N)N)NC(=O)CN1CCC(NC(=O)CN2CCN(CC(=O)O)CCN(CC(=O)O)CCN(CC(=O)O)CC2)CC1)C(C)C)C(N)=O` [DOTA-[arg^6]MJ9] ({DOTA}-[X1][dR]QWAVGH[Sta]L-NH2), the “Amount of intact tracer after incubation” value came to 13.5 ± 3.4.

As for `CC(C)C[C@H](NC(=O)C[C@H](O)[C@H](CC(C)C)NC(=O)[C@H](Cc1c[nH]cn1)NC(=O)CNC(=O)[C@@H](NC(=O)[C@H](C)NC(=O)[C@H](Cc1csc2ccccc12)NC(=O)[C@H](CCC(N)=O)NC(=O)[C@@H](Cc1ccccc1)NC(=O)[C@H]1CC[C@H](CNC(=O)CN2CCN(CC(=O)O)CCN(CC(=O)O)CCN(CC(=O)O)CC2)CC1)C(C)C)C(N)=O` [DOTA-[Txa^5, Bta^8]MJ9] ({DOTA-Trx}-[dF]Q[Bta]AVGH[Sta]L-NH2), the “Amount of intact tracer after incubation” value was 27.1 ± 2.1.

Regarding `CC(C)C[C@H](NC(=O)C[C@H](O)[C@H](CC(C)C)NC(=O)[C@H](Cc1c[nH]cn1)NC(=O)CNC(=O)[C@@H](NC(=O)[C@H](C)NC(=O)[C@](C)(Cc1c[nH]c2ccccc12)NC(=O)[C@H](CCC(N)=O)NC(=O)[C@@H](Cc1ccccc1)NC(=O)CN1CCC(NC(=O)[C@@H](CN)NC(=O)[C@@H](CCCN)NC(=O)CN2CCN(CC(=O)O)CCN(CC(=O)O)CCN(CC(=O)O)CC2)CC1)C(C)C)C(N)=O` [DOTA-orn^3-dap^4-[α-Me-Trp^8]MJ9] ({DOTA}-[dOrn][dDap][X1][dF]Q[αMeW]AVGH[Sta]L-NH2), the “Amount of intact tracer after incubation” value came out at 16.6 ± 0.8.

`CCCC[C@H](NC(=O)[C@H](Cc1ccccc1)NC(=O)[C@H](Cc1c[nH]cn1)NC(=O)CCNC(=O)[C@@H](NC(=O)[C@H](C)NC(=O)[C@H](Cc1c[nH]c2ccccc12)NC(=O)[C@H](CCO)NC(=O)[C@@H](Cc1ccccc1)NC(=O)CN1CCN(CC(=O)O)CCN(CC(=O)O)CCN(CC(=O)O)CC1)C(C)C)C(N)=O` [DOTA-[Hse^7]UL] ({DOTA}-[dF][hSer]WAV[βAla]HF[Nle]-NH2): the “Amount of intact tracer after incubation” value is given as 0.9 ± 0.9.

For `CCCC[C@H](NC(=O)[C@H](Cc1ccccc1)NC(=O)[C@H](Cc1c[nH]cn1)NC(=O)CCNC(=O)[C@@H](NC(=O)[C@H](C)NC(=O)[C@H](Cc1c[nH]c2ccccc12)NC(=O)[C@H](CCC(N)=O)NC(=O)[C@@H](Cc1ccccc1)NC(=O)CN1CCN(CC(=O)O)CCN(CC(=O)O)CCN(CC(=O)O)CC1)C(C)C)C(N)=O` [UL, reference compound] ({DOTA}-[dF]QWAV[βAla]HF[Nle]-NH2), the “Amount of intact tracer after incubation” value is recorded as 4.3 ± 0.2.

Regarding `CC(C)C[C@H](NC(=O)C[C@H](O)[C@H](CC(C)C)NC(=O)[C@H](Cc1c[nH]cn1)NC(=O)CN(C)C(=O)[C@@H](NC(=O)[C@H](C)NC(=O)[C@H](Cc1c[nH]c2ccccc12)NC(=O)[C@H](CCO)NC(=O)[C@@H](Cc1ccccc1)NC(=O)CN1CCC(NC(=O)CN2CCN(CC(=O)O)CCN(CC(=O)O)CCN(CC(=O)O)CC2)CC1)C(C)C)C(N)=O` [DOTA-[Hse^7, N—Me-Gly^11]MJ9] ({DOTA}-[X1][dF][hSer]WAV[Sar]H[Sta]L-NH2), the “Amount of intact tracer after incubation” value is 13.8 ± 0.7.

Take `CC(C)C[C@H](NC(=O)C[C@H](O)[C@H](CC(C)C)NC(=O)[C@H](Cc1c[nH]cn1)NC(=O)CNC(=O)[C@@H](NC(=O)[C@H](C)NC(=O)[C@](C)(Cc1c[nH]c2ccccc12)NC(=O)[C@H](CCC(N)=O)NC(=O)[C@@H](Cc1ccccc1)NC(=O)CN1CCC(NC(=O)CN2CCN(CC(=O)O)CCN(CC(=O)O)CCN(CC(=O)O)CC2)CC1)C1CCCCC1)C(N)=O` [DOTA-[α-Me-Trp^8, Chg^10]MJ9] ({DOTA}-[X1][dF]Q[αMeW]A[Chg]GH[Sta]L-NH2): the “Amount of intact tracer after incubation” value is recorded as 22.6 ± 1.9.

With `CC(C)C[C@H](NC(=O)C[C@H](O)[C@H](CC(C)C)NC(=O)[C@H](Cc1c[nH]cn1)NC(=O)CNC(=O)[C@@H](NC(=O)[C@H](C)NC(=O)[C@H](Cc1csc2ccccc12)NC(=O)[C@H](CCC(N)=O)NC(=O)[C@@H](Cc1ccccc1)NC(=O)CN1CCC(NC(=O)[C@@H](CN)NC(=O)[C@@H](CCCN)NC(=O)CN2CCN(CC(=O)O)CCN(CC(=O)O)CCN(CC(=O)O)CC2)CC1)C(C)C)C(N)=O` [DOTA-orn^3-dap^4-[Bta^8]MJ9] ({DOTA}-[dOrn][dDap][X1][dF]Q[Bta]AVGH[Sta]L-NH2), the “Amount of intact tracer after incubation” value worked out at 2.7 ± 0.3.

In the case of `CC(C)C[C@H](NC(=O)C[C@H](O)[C@H](CC(C)C)NC(=O)[C@H](Cc1c[nH]cn1)NC(=O)CNC(=O)[C@@H](NC(=O)[C@H](C)NC(=O)[C@H](Cc1c[nH]c2ccccc12)NC(=O)[C@H](CCC(N)=O)NC(=O)[C@@H](Cc1ccccc1)NC(=O)[C@H]1CC[C@H](CNC(=O)CN2CCN(CC(=O)O)CCN(CC(=O)O)CCN(CC(=O)O)CC2)CC1)C(C)C)C(N)=O` [DOTA-[Txa^5]MJ9], the “Amount of intact tracer after incubation” value is 24.8 ± 0.3.

With `CC(C)C[C@H](NC(=O)C[C@H](O)[C@H](CC(C)C)NC(=O)[C@H](Cc1c[nH]cn1)NC(=O)CN(C)C(=O)[C@@H](NC(=O)[C@H](C)NC(=O)[C@](C)(Cc1c[nH]c2ccccc12)NC(=O)[C@H](CCC(N)=O)NC(=O)[C@@H](Cc1ccccc1)NC(=O)CN1CCC(NC(=O)CN2CCN(CC(=O)O)CCN(CC(=O)O)CCN(CC(=O)O)CC2)CC1)C(C)C)C(N)=O` [DOTA-[α-Me-Trp^8, N—Me-Gly^11]MJ9], the “Amount of intact tracer after incubation” value amounted to 14.3 ± 1.2.

For the origin of these results see patent US20250339567A1, “COMPOUNDS WITH IMPROVED PHARMACOKINETICS FOR IMAGING AND THERAPY OF CANCER” (priority 2019, published 2025).
